Experiment: molar heat capacity at constant pressure
Conditions: Liquid, Flow calorimetry

CC(=O)[O-].CCn1cc[n+](C)c1 [1-ethyl-3-methylimidazolium acetate]
Conditions | molar heat capacity at constant pressure [J/K/mol]
303.15 K, 100 kPa | 325.25
303.17 K, 4020 kPa | 324.22
303.21 K, 8050 kPa | 322.31
303.25 K, 12080 kPa | 321.03
303.27 K, 16030 kPa | 319.45
313.25 K, 100 kPa | 329.51
313.37 K, 4110 kPa | 327.89
313.42 K, 8060 kPa | 327.03
313.45 K, 12060 kPa | 326.25
313.49 K, 16090 kPa | 325.87
323.16 K, 100 kPa | 332.22
323.22 K, 4040 kPa | 330.61
323.28 K, 8020 kPa | 329.03
323.31 K, 12070 kPa | 327.19
323.34 K, 16130 kPa | 326.51
333.42 K, 100 kPa | 337.87
333.48 K, 4080 kPa | 336.14
333.52 K, 8030 kPa | 334.67
333.59 K, 12010 kPa | 333.16
333.61 K, 16090 kPa | 331.41
343.76 K, 100 kPa | 341.44
343.82 K, 4020 kPa | 340.21
343.85 K, 8030 kPa | 338.53
343.92 K, 12050 kPa | 337.42
343.98 K, 16050 kPa | 336.01
354.29 K, 100 kPa | 345.18
354.33 K, 4060 kPa | 343.89
354.38 K, 8020 kPa | 342.02
354.46 K, 12080 kPa | 340.87
354.52 K, 16090 kPa | 339.03
363.65 K, 100 kPa | 348.36
363.67 K, 4050 kPa | 346.97
363.72 K, 8060 kPa | 345.19
363.78 K, 12070 kPa | 344.06
363.82 K, 16030 kPa | 342.91
374.02 K, 100 kPa | 353.57
374.09 K, 4070 kPa | 352.06
374.11 K, 8010 kPa | 350.13
374.15 K, 12150 kPa | 348.47
374.18 K, 16110 kPa | 347.01
383.41 K, 100 kPa | 357.23
383.46 K, 4080 kPa | 355.56
383.51 K, 8040 kPa | 354.44
383.53 K, 12090 kPa | 353.71
383.55 K, 16050 kPa | 352.62
393.22 K, 100 kPa | 362.22
393.26 K, 4030 kPa | 361.14
393.31 K, 8070 kPa | 359.92
393.33 K, 12140 kPa | 358.14
393.35 K, 16090 kPa | 356.53

CC(=O)[O-].CCCCCCn1cc[n+](C)c1 [3-hexyl-1-methylimidazolium acetate]
Conditions | molar heat capacity at constant pressure [J/K/mol]
308.3 K, 100 kPa | 446.98
308.6 K, 3940 kPa | 445.51
308.7 K, 7930 kPa | 444.39
308.7 K, 11720 kPa | 442.98
308.8 K, 16020 kPa | 442.23
317.5 K, 100 kPa | 451.85
317.5 K, 4020 kPa | 450.18
317.6 K, 8080 kPa | 449.27
317.8 K, 12320 kPa | 448.43
317.9 K, 16210 kPa | 447.35
327.4 K, 100 kPa | 455.72
327.5 K, 4030 kPa | 454.06
327.7 K, 8190 kPa | 452.63
327.8 K, 12480 kPa | 451.08
327.8 K, 16220 kPa | 450.18
337.2 K, 100 kPa | 460.35
337.3 K, 4120 kPa | 458.97
337.7 K, 8030 kPa | 457.41
337.8 K, 12180 kPa | 456.32
338 K, 16110 kPa | 454.87
345.9 K, 100 kPa | 466.57
346.2 K, 4120 kPa | 465.32
346.3 K, 8170 kPa | 463.82
346.5 K, 12410 kPa | 462.14
346.8 K, 16130 kPa | 460.75
355.3 K, 100 kPa | 472.17
355.6 K, 4120 kPa | 470.85
355.7 K, 8010 kPa | 469.29
355.9 K, 12430 kPa | 468.34
356.1 K, 16130 kPa | 466.81
365 K, 7990 kPa | 476.86
365.1 K, 12180 kPa | 475.05
365.4 K, 16100 kPa | 473.57
365.7 K, 100 kPa | 479.8
365.8 K, 4110 kPa | 478.25
374 K, 100 kPa | 485.51
374.2 K, 4020 kPa | 483.86
374.4 K, 8100 kPa | 482.22
374.7 K, 12380 kPa | 480.71
375 K, 16130 kPa | 479.24
383.9 K, 100 kPa | 491.39
384.1 K, 4100 kPa | 490.53
384.3 K, 7960 kPa | 489.08
384.4 K, 12530 kPa | 487.97
384.5 K, 16010 kPa | 486.3
394.9 K, 100 kPa | 496.24
395.1 K, 4070 kPa | 494.51
395.1 K, 8360 kPa | 493.11
395.2 K, 12770 kPa | 491.91
395.4 K, 16400 kPa | 490.48
